pIC50, pKi: −log10 of the molar value.
Tests used:
ORL-1 receptor = target: T1, ORL-1 receptor (Rattus norvegicus, UniProt P35370); assay: ORL-1 receptor binding test ([3H]-nociceptin); conditions: receptor prepared from cerebral cortex of rat
T1 construct: a standard product of the receptor prepared from cerebral cortex of rat; from tissue; host or cells: rat cerebral cortex

human ORL-1 receptor = human ORL-1 receptor (Homo sapiens, UniProt P41146); assay: Agonist action: inhibition of forskolin-stimulated cAMP elevation in HEK293 cells; format: cell-based; conditions: HEK293 cells expressing human ORL-1 receptor, forskolin 1 μmol/L
rats = assay: Antagonistic action of the ORL-1 receptor antagonist on the phase advancement by the ORL-1 receptor agonist; format: in vivo, rat; conditions: constant dark, oral

T1 sequence (P35370 whole entry): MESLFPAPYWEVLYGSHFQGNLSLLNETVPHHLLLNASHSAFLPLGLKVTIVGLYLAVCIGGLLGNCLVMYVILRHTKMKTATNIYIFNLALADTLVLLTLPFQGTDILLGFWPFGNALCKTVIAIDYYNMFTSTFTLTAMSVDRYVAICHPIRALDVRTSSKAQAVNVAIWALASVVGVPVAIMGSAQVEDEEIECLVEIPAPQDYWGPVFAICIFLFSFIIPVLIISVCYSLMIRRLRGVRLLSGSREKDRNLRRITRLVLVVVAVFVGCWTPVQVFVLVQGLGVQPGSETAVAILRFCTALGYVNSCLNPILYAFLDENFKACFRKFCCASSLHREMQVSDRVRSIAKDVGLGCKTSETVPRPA
human ORL-1 receptor, sequence (P41146 whole entry): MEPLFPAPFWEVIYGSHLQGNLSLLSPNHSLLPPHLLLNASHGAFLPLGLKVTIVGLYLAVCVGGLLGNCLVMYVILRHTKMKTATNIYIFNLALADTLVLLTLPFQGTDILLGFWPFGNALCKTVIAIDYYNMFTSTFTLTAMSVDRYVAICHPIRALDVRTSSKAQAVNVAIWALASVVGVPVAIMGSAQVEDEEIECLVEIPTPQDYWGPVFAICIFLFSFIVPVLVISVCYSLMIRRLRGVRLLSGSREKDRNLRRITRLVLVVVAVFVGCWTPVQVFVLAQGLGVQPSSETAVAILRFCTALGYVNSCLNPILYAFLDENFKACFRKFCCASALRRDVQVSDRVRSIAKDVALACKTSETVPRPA

CCc1ccc(OCc2ccccc2C(=O)Nc2ccc3nc(C)cc(N)c3c2)cc1.Cl [compound D, N-(4-amino-2-methylquinolin-6-yl)-2-(4-ethylphenoxymethyl)benzamide hydrochloride]
pIC50 (ORL-1 receptor; 25° C., 20 minutes, read-out: IC50 value, inhibition of the binding of [3H]-nociceptin): 6.30 | pKi (ORL-1 receptor; Ki=IC50/(1+L/Kd), read-out: Ki value, inhibition of the binding of [3H]-nociceptin): 7.22 | inhibition of cAMP production (ORL-1 receptor agonistic activity) (human ORL-1 receptor): did not inhibit cAMP production | phase shift for the ORL-1 receptor antagonist alone (rats): no phase shift was observed

Source: patent US8003669B2, “Remedy for sleep disturbance” (Mitsubishi Tanabe Pharma Corporation, priority 2002, dated 2011)
